Literature values in PubChem BioAssay AID1259409 (Chemical Carcinogenesis Research Information System (CCRIS), 2018).

System: rodent chemically induced tumor inhibition, incidence and multiplicity
Test: CCRIS tumor inhibitor studies

SMILES: O
- tumour outcome (control, treated, inhibition, significance) (Carcinogen: 1,2-DIMETHYLHYDRAZINE, 540-73-8, Dose [Inhibitor]: 0, 250 PPM IN DIET BEGINNING POST CARCINOGEN TREATMENT AND CONTINUING FOR DURATION OF STUDY (STUDY DURATION: 365 D), Route [Inhibitor]: ORAL, Species: RAT, Strain/Sex: F344/MALE, Target Tissue: Type of Lesion: LARGE INTESTINE: ADENOMA OR ADENOCARCINOMA, Dose [Carcinogen]: 20 MG/KG BW 10 TIMES, Promoter: NONE USED): 14/30 (47%), 11/32 (34%), 28%, not significant
- tumour outcome (control, treated, inhibition, significance) (Carcinogen: 1,2-DIMETHYLHYDRAZINE, 540-73-8, Dose [Inhibitor]: 0, 250 PPM IN DIET BEGINNING POST CARCINOGEN TREATMENT AND CONTINUING FOR DURATION OF STUDY (STUDY DURATION: 365 D), Route [Inhibitor]: ORAL, Species: RAT, Strain/Sex: F344/MALE, Target Tissue: Type of Lesion: SMALL INTESTINE: ADENOCARCINOMA, Dose [Carcinogen]: 20 MG/KG BW 10 TIMES, Promoter: NONE USED): 6/30 (20%), 5/32 (16%), 20%, not significant
- tumour outcome (control, treated, inhibition, significance) (Carcinogen: 1,2-DIMETHYLHYDRAZINE, 540-73-8, Dose [Inhibitor]: 0, 500 PPM IN DIET BEGINNING POST CARCINOGEN TREATMENT AND CONTINUING FOR DURATION OF STUDY (STUDY DURATION: 365 D), Route [Inhibitor]: ORAL, Species: RAT, Strain/Sex: F344/MALE, Target Tissue: Type of Lesion: LARGE INTESTINE: ADENOMA OR ADENOCARCINOMA, Dose [Carcinogen]: 20 MG/KG BW 10 TIMES, Promoter: NONE USED): 14/30 (47%), 16/32 (50%), -6%, not significant
- tumour outcome (control, treated, inhibition, significance) (Carcinogen: 1,2-DIMETHYLHYDRAZINE, 540-73-8, Dose [Inhibitor]: 0, 500 PPM IN DIET BEGINNING POST CARCINOGEN TREATMENT AND CONTINUING FOR DURATION OF STUDY (STUDY DURATION: 365 D), Route [Inhibitor]: ORAL, Species: RAT, Strain/Sex: F344/MALE, Target Tissue: Type of Lesion: SMALL INTESTINE: ADENOMA, Dose [Carcinogen]: 20 MG/KG BW 10 TIMES, Promoter: NONE USED): 6/30 (20%), 3/32 (9%), 55%, not significant
- tumour outcome (control, treated, inhibition, significance) (Carcinogen: 1,2-DIMETHYLHYDRAZINE, 540-73-8, Dose [Inhibitor]: 0, 1000 PPM IN DIET BEGINNING POST CARCINOGEN TREATMENT AND CONTINUING FOR DURATION OF STUDY (STUDY DURATION: 365 D), Route [Inhibitor]: ORAL, Species: RAT, Strain/Sex: F344/MALE, Target Tissue: Type of Lesion: LARGE INTESTINE: ADENOMA OR ADENOCARCINOMA, Dose [Carcinogen]: 20 MG/KG BW 10 TIMES, Promoter: NONE USED): 14/30 (47%), 11/32 (34%), 28%, not significant
- tumour outcome (control, treated, inhibition, significance) (Carcinogen: 1,2-DIMETHYLHYDRAZINE, 540-73-8, Dose [Inhibitor]: 0, 1000 PPM IN DIET BEGINNING POST CARCINOGEN TREATMENT AND CONTINUING FOR DURATION OF STUDY (STUDY DURATION: 365 D), Route [Inhibitor]: ORAL, Species: RAT, Strain/Sex: F344/MALE, Target Tissue: Type of Lesion: SMALL INTESTINE: ADENOCARCINOMA, Dose [Carcinogen]: 20 MG/KG BW 10 TIMES, Promoter: NONE USED): 6/30 (20%), 6/32 (19%), 5%, not significant
- tumour outcome (control, treated, inhibition, significance) (Carcinogen: 1,2-DIMETHYLHYDRAZINE, 540-73-8, Dose [Inhibitor]: 0, 2000 PPM IN DIET BEGINNING POST CARCINOGEN TREATMENT AND CONTINUING FOR DURATION OF STUDY (STUDY DURATION: 365 D), Route [Inhibitor]: ORAL, Species: RAT, Strain/Sex: F344/MALE, Target Tissue: Type of Lesion: LARGE INTESTINE: ADENOCARCINOMA, Dose [Carcinogen]: 20 MG/KG BW 10 TIMES, Promoter: NONE USED): 11/30 (37%), 11/31 (35%), 5%, not significant
- tumour outcome (control, treated, inhibition, significance) (Carcinogen: 1,2-DIMETHYLHYDRAZINE, 540-73-8, Dose [Inhibitor]: 0, 2000 PPM IN DIET BEGINNING POST CARCINOGEN TREATMENT AND CONTINUING FOR DURATION OF STUDY (STUDY DURATION: 365 D), Route [Inhibitor]: ORAL, Species: RAT, Strain/Sex: F344/MALE, Target Tissue: Type of Lesion: SMALL INTESTINE: ADENOCARCINOMA, Dose [Carcinogen]: 20 MG/KG BW 10 TIMES, Promoter: NONE USED): 6/30 (20%), 10/31 (32%), -60%, not significant
- tumour outcome (control, treated, inhibition, significance) (Carcinogen: METHYLAZOXYMETHANOL ACETATE, 592-62-1, Dose [Inhibitor]: 0, 500 PPM IN DIET BEGINNING 2 WK POST CARCINOGEN TREATMENT AND CONTINUING FOR DURATION OF STUDY (STUDY DURATION: 255 D), Route [Inhibitor]: ORAL, Species: RAT, Strain/Sex: F344/MALE, Target Tissue: Type of Lesion: LARGE INTESTINE: ADENOMA OR ADENOCARCINOMA, Dose [Carcinogen]: 25 MG/KG BW 1/WK FOR 3 WK, Promoter: NONE USED): 17/32 (53%), 3/30 (10%), 81%, p<0.0002
- tumour outcome (control, treated, inhibition, significance) (Carcinogen: METHYLAZOXYMETHANOL ACETATE, 592-62-1, Dose [Inhibitor]: 0, 500 PPM IN DIET BEGINNING 2 WK POST CARCINOGEN TREATMENT AND CONTINUING FOR DURATION OF STUDY (STUDY DURATION: 255 D), Route [Inhibitor]: ORAL, Species: RAT, Strain/Sex: F344/MALE, Target Tissue: Type of Lesion: SMALL INTESTINE: ADENOCARCINOMA, Dose [Carcinogen]: 25 MG/KG BW 1/WK FOR 3 WK, Promoter: NONE USED): 2/32 (6%), 2/30 (7%), -17%, not significant
- tumour outcome (control, treated, inhibition, significance) (Carcinogen: METHYLAZOXYMETHANOL ACETATE, 592-62-1, Dose [Inhibitor]: 0, 1000 PPM IN DIET BEGINNING 2 WK POST CARCINOGEN TREATMENT AND CONTINUING FOR DURATION OF STUDY (STUDY DURATION: 255 D, Route [Inhibitor]: ORAL, Species: RAT, Strain/Sex: F344/MALE, Target Tissue: Type of Lesion: LARGE INTESTINE: ADENOMA OR ADENOCARCINOMA, Dose [Carcinogen]: 25 MG/KG BW 1/WK FOR 3 WK, Promoter: NONE USED): 17/32 (53%), 9/30 (30%), 43%, not significant
- tumour outcome (control, treated, inhibition, significance) (Carcinogen: METHYLAZOXYMETHANOL ACETATE, 592-62-1, Dose [Inhibitor]: 0, 1000 PPM IN DIET BEGINNING 2 WK POST CARCINOGEN TREATMENT AND CONTINUING FOR DURATION OF STUDY (STUDY DURATION: 255 D, Route [Inhibitor]: ORAL, Species: RAT, Strain/Sex: F344/MALE, Target Tissue: Type of Lesion: SMALL INTESTINE: ADENOCARCINOMA, Dose [Carcinogen]: 25 MG/KG BW 1/WK FOR 3 WK, Promoter: NONE USED): 2/32 (6%), 2/30 (7%), -17%, not significant
- tumour outcome (control, treated, inhibition, significance) (Carcinogen: METHYLAZOXYMETHANOL ACETATE, 592-62-1, Dose [Inhibitor]: 500 PPM IN DIET BEGINNING 2 WK POST LAST CARCINOGEN DOSE AND CONTINUING FOR 227 D (STUDY DURATION: 255 D), Route [Inhibitor]: ORAL, Species: RAT, Strain/Sex: F344/MALE, Target Tissue: Type of Lesion: LARGE INTESTINE: ADENOMA OR ADENOCARCINOMA, Dose [Carcinogen]: 25 MG/KG 1/WK FOR 3 WK, Promoter: NONE USED): 17/32 (53%), 3/30 (10%), 81%, p<0.0002
- tumour outcome (control, treated, inhibition, significance) (Carcinogen: METHYLAZOXYMETHANOL ACETATE, 592-62-1, Dose [Inhibitor]: 1000 PPM IN DIET BEGINNING 2 WK POST LAST CARCINOGEN DOSE AND CONTINUING FOR 227 D (STUDY DURATION: 255 D), Route [Inhibitor]: ORAL, Species: RAT, Strain/Sex: F344/MALE, Target Tissue: Type of Lesion: LARGE INTESTINE: ADENOMA OR ADENOCARCINOMA, Dose [Carcinogen]: 25 MG/KG 1/WK FOR 3 WK, Promoter: NONE USED): 17/32 (53%), 9/30 (30%), 43%, not calculated

SMILES: CC(C)=CCc1cc(/C=C/C(=O)O)cc(CC=C(C)C)c1O
- tumour outcome (control, treated, inhibition, significance) (Carcinogen: FERRIC NITRILOTRIACETATE, 16448-54-7, Dose [Inhibitor]: 0, 350 UG/MOUSE IN OLIVE OIL TWICE/D FOR 5 D/WK FOR 1 YR BEGINNING POST CARCINOGEN TREATMENT (STUDY DURATION: 1 YR AND 8, Route [Inhibitor]: ORAL, Species: MOUSE, Strain/Sex: DDY/MALE, Target Tissue: Type of Lesion: KIDNEY: CARCINOMA, Dose [Carcinogen]: 43.6 MG/KG BW/D TWICE/WK FOR FIRST 8 WK, Promoter: NONE): 1/9 (11%), 0/6 (0%), 100%, not significant

SMILES: Oc1ccccc1
- tumour outcome (control, treated, inhibition, significance) (Carcinogen: BENZO[A]PYRENE, 50-32-8, Dose [Inhibitor]: 0.03 MMOL/G OF DIET STARTING 8 D BEFORE AND CONTINUING THROUGH 3 D AFTER LAST CARCINOGEN TREATMENT (STUDY DURATION: 148, Route [Inhibitor]: ORAL, Species: MOUSE, Strain/Sex: ICR/FEMALE, Target Tissue: Type of Lesion: FORESTOMACH: NEOPLASM, Dose [Carcinogen]: 1 MG IN 0.2 ML CORN OIL 2/WK FOR 4 WK, Promoter: NONE USED): 100%, 100%, 0%, not significant
- tumour outcome (control, treated, inhibition, significance) (Carcinogen: BENZO[A]PYRENE, 50-32-8, Dose [Inhibitor]: 3 MG IN 0.1 ML ACETONE 3/WK ADMINISTERED SIMULTANEOUSLY WITH CARCINOGEN FOR DU RATION OF STUDY (STUDY DURATION: 368 D), Route [Inhibitor]: DERMAL, Species: MOUSE, Strain/Sex: ICR/FEMALE, Target Tissue: Type of Lesion: SKIN: PAPILLOMA, Dose [Carcinogen]: 5 UG IN 0.1 ML ACETONE 3/WK FOR DURATION OF STUDY, Promoter: NONE USED): 14/50 (28%), 7/50 (14%), 50%, not calculated
- tumour outcome (control, treated, inhibition, significance) (Carcinogen: BENZO[A]PYRENE, 50-32-8, Dose [Inhibitor]: 3 MG IN 0.1 ML ACETONE 3/WK ADMINISTERED SIMULTANEOUSLY WITH CARCINOGEN FOR DURATION OF STUDY (STUDY DURATION: 368 D), Route [Inhibitor]: DERMAL, Species: MOUSE, Strain/Sex: ICR/FEMALE, Target Tissue: Type of Lesion: SKIN: SQUAMOUS CARCINOMA, Dose [Carcinogen]: 5 UG IN 0.1 ML ACETONE 3/WK FOR DURATION OF STUDY, Promoter: NONE USED): 10/50 (20%), 3/50 (6%), 70%, not calculated
